Data reported in patent US20210024499A1, “OXIDIZED BIS(3-INDOLYL)METHANES AND USES THEREOF” (Sanford Burnam Prebys Medical Discovery Institute, priority 2018, published 2021).

Key:
[1] = test system: Nur77 interaction with Bcl-2; assay: Confocal microscopy colocalization of Nur77 with Bcl-2; type: cell-based
[2] = test system: Nur77 and pBind-RXRa-LBD-E453,6A; assay: Mammalian one hybrid assay, RXRa-LBD/E453,6A mutant with Nur77; type: cell-based; conditions: cells transfected with Nur77 and pBind-RXRa-LBD-E453,6A
Description: HEK293T cells were co-transfected with pG5 Luciferase reporter together with the plasmid encoding RXRa-LBD fused with the Gal4 DNA-binding domain and other expression plasmids. After transfection, cells were treated with DMSO or a test compound, and assayed by using the Dual-Luciferase Reporter Assay System (Promega). Transfection efficiency was normalized to Renilla luciferase activity.
To exclude the possibility that Compound 1 acted on RXRa, Glu453 and Glu456 in the RXRa activation function 2 (AF2) region were substituted with Ala and the resulting mutant, RXRa-LBD/E453,6A, was used.

[3] = test system: Bcl-2−/−MEFs; assay: PARP cleavage, Bcl-2-/- MEFs; type: cell-based, mouse; conditions: 0.5 μM
Excerpt: (§1) The apoptotic effect of Compound 1 was also examined in mouse embryonic fibroblast (MEF) and MEF lacking Bcl-2 (Bcl-2^−/−MEF). […] Apoptotic cells were counted in 200 cells.

[4] = test system: MEF cells; assay: Mitochondrial membrane potential (JC1), MEF; type: cell-based, mouse; conditions: 0.5 μM, 6 h
Description: (§2) Loss of mitochondrial membrane potential (Avm) represents one of the hallmarks of apoptosis. A JC-1 probe was employed to measure mitochondrial depolarization in cancer cells. MDA-MB-231 breast cancer cells were treated with different concentration of test compounds for 6 hours. JC-1 staining solution (5 μg/ml) was added at 37° C. for 20 min. After washing with PBS twice, mitochondrial membrane potentials were monitored by determining the relative amounts of dual emission from a multiple fluorescence reader. The fluorescence in cells was quantitatively analyzed by flow cytometry. Mitochondrial depolarization is depicted by an increase in the green/red fluorescence intensity ratio. ROS were monitored with the oxiadtion-senstive fluorescent probe 2′7′-dichlorodihydroflurescenin diacetate (DCF-DA).
In addition, Bcl-2^−/−MEF cells were more resistant than the parental MEF cells to Compound 1 in its induction of the mitochondrial membrane potential loss measured by JC1 staining and in the release of mitochondrial ROS (as performed in Example A-12).

[5] = test system: SW480 cells; assay: PARP cleavage assay (Western blotting), SW480; type: cell-based; conditions: 6 hours
Excerpt: Compound 1a had no effect under the same conditions (FIG. 1A). […] Compound 1a, 28a, 47a, 48a, 73a, 39a, 70a, 103a, 89a and 88a had no effect under the same conditions (FIG. 3B-C).

[6] = test system: Nur77; assay: Cellular fractionation and immunostaining: mitochondrial targeting of Nur77; type: cell-based
Description: (§3) For cellular fractionation, cells were lysed in cold buffer A (10 mM HEPES-KOH (pH 7.9), 1.5 mM MgCl2, 10 mM KCl, 0.5 mM dithiothreitol) with a cocktail of proteinase inhibitors on ice for 10 min as described. Cytoplasmic fraction was collected by centrifuging at 6000 rpm for 30 seconds. Pellets containing nuclei were resuspended in cold high-salt buffer C (20 mM HEPES-KOH (pH 7.9), 25% glycerol, 420 mM NaCl, 1.5 mM MgCl2, 0.2 mM EDTA, 0.5 mM dithiothreitol) with a cocktail of proteinase inhibitors on ice for 30 minutes.

[7] = target: T1, Nur77 (Homo sapiens, UniProt P22736); assay: as above; type: cell-based
T1 construct: expressed in transfected cells
Description: as §3

[8] = test system: Bcl-2−/−HeLa cells; assay: Annexin V/PI staining, Bcl-2 knockout HeLa; type: cell-based
Description: Knocking out Nur77 and Bcl-2 from HeLa cells employed the CRISPR/Cas9 system. gRNA targeting sequence of Nur77 (5′-[…]-3′) and Bcl-2 (5′-[…]-3′) was cloned into gRNA cloning vector Px330 (Addgene, 71707) and confirmed by sequencing. To screen for cells lacking Nur77 or Bcl-2, HeLa cells were transfected with control vector and gRNA expression vectors, followed by G418 selection (0.5mg/m1). Single colonies were subjected to Western blotting using anti-Nur77 and anti-Bcl-2 antibody to select knockout cells.
The apoptotic effect of Compound lwas also evaluated in Bcl-2 genome knockout HeLa cells generated by CRISPR/Cas9 technology (Example A-5).

[9] = test system: MDA-MB-231 breast cancer cells; assay: Mitochondrial membrane potential (JC-1), MDA-MB-231; type: cell-based; conditions: MDA-MB-231 cells, 1 μM, 6 h
Description: as §2
In healthy cells with high Δψwm, JC-1 forms complexes with intense red fluorescence. However, in cells with low Δψm, JC-1 remains in the monomeric form with green fluorescence. Mitochondrial depolarization is depicted by an increase in the green/red fluorescence intensity ratio.

[10] = target: T2, Nur77-LBD (Homo sapiens, UniProt P22736); assay: Surface plasmon resonance (SPR) binding to Nur77-LBD; conditions: Nur77-LBD protein, 25° C.
T2 construct: Protein spectra of purified Nur77-LBD at temperature 50° C. and above changed substantially; His (N); made in house
Description: The binding kinetics between Nur77-LBD and test compounds was analyzed at 25° C. on a BlAcore T200 machine with CMS chips (GE Healthcare). PBSP was used for all measurements. For SPR measurements, Nur77-LBD proteins were purified. A blank channel was used as negative control. About 10,000 response units of Nur77-LBD were immobilized on the chips. When the data collection was finished in each cycle, the sensor surface was regenerated with Glycine-HCl 2.5. A serial of concentrations ranging from 0.15 to 5.0 μM were designed for the experiment. Sensograms were fit globally with BIAcore T200 analysis using 1:1 Langumuir binding mode.

[11] = test system: MEFs; assay: DAPI staining for apoptosis, MEFs; type: cell-based, mouse; conditions: 0.5 μM
Excerpt: as §1

[12] = test system: HCT116 cells; assay: DAPI staining for apoptosis, HCT116; type: cell-based; conditions: 0.5 μM, 6 hours, counted in 200 cells
Description: In HCT116 cells, about 80% apoptotic cells were detected when cells were treated with Compound 1 compared to less than 5% when cells were not treated with Compound 1. Apoptotic cells were counted in 200 cells.

[13] = test system: SW480 cells; assay: DAPI staining for apoptosis, SW480; type: cell-based; conditions: 0.5 μM, 6 hours, counted in 200 cells
Description: In SW480 cells, about 60% apoptotic cells were detected when cells were treated with Compound 1 compared to less than 5% when cells were not treated with Compound 1. Apoptotic cells were counted in 200 cells.

T1 sequence (P22736 whole entry): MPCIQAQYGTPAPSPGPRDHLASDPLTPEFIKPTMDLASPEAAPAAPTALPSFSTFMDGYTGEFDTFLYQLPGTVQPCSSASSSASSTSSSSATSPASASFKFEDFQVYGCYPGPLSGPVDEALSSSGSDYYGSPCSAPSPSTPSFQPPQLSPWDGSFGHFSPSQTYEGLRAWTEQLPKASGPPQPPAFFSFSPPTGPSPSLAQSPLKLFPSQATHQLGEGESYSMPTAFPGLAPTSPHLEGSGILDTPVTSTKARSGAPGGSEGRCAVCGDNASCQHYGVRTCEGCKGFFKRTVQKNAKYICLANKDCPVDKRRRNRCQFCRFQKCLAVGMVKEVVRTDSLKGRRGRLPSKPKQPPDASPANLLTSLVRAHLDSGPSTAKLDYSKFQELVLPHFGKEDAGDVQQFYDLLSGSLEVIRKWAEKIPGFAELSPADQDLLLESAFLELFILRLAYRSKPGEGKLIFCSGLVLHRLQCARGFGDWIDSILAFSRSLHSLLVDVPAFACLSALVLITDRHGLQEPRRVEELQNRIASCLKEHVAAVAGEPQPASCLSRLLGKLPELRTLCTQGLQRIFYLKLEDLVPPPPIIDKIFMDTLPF
T2 sequence (P22736 360-595 limits assumed): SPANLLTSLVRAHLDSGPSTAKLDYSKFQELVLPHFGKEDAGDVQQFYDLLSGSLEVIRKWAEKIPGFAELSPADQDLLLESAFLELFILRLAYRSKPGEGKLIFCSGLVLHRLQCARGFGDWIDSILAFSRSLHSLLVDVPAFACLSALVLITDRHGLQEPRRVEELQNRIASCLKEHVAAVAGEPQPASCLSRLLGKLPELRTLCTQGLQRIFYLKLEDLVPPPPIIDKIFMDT

FC(F)(F)c1ccc([C+](c2c[nH]c3ccccc23)c2c[nH]c3ccccc23)cc1 [Compound 1, Bis(1H-indol-3-yl)(4-(trifluoromethyl)phenyl)methylium methanesulfonate]
colocalization of transfected GFP-Nur77 (and GFP-Nur77-LBD) with Bcl-2 [1]: promoted extensive colocalization | reporter transcriptional activity [2]: could still activate the reporter gene transcription | PARP cleavage [3]: no apparent effect | JC1 green to red ratio (control 100%) [4]: 400% | concentration inducing PARP cleavage (dose dependent study) [5]: submicromolar concentrations | transfected GFP-Nur77-LBD colocalization with Hsp60 ([6]; confocal microscopy and cellular fractionation): colocalized extensively with the mitochondria-specific Hsp60 protein | Myc-Nur77-LBD colocalization with mitochondria ([6]; immunostaining): colocalized extensively with the mitochondria | transfected GFP-Nur77 in heavy membrane (HM) fraction ([7]; cellular fractionation): accumulated in the mitochondria-enriched heavy membrane (HM) fraction | Myc-Nur77 in heavy membrane (HM) fraction ([7]; mitochondria fractionation, 1μM): accumulated in the mitochondria-enriched heavy membrane (HM) fraction | apoptotic effect (Annexin V/PI staining) [8]: 7.95% | JC-1 green to red ratio (control 100%) [9]: 345% | Kd [10]: 0.1 µM | cells with chromatin condensation and nuclear fragmentation (DAPI) [11]: 40% | apoptotic cells (DAPI staining) [12]: about 80% | apoptotic cells (DAPI staining) [13]: about 60%
